System: transient cerebral focal ischemia (left middle cerebral artery occlusion)
Conditions: rat, in vivo

For `C[C@]12N[C@H](Cc3ccccc31)c1ccccc12` [MK801, dizocilpine, reference compound], the “infarct volume relative to saline-treated control” value was 61.1%±8.6% and the “reduction of focal ischemia / infarct size (summary statement)” value was 40%.
